The test system of data set [1] is sixty human tumour cells derived from nine cancer types. Description: NCI in vitro cytotoxicity screen, 48 h drug exposure, sulforhodamine B (SRB) protein assay. The format is cell-based. The note with it: for Log10 GI50 mean graph midpoint (MG_MID): concentration causing 50% cell growth inhibition; for Log10 GI50 mean graph midpoint (MG_MID) / Log10 TGI mean graph midpoint (MG_MID): mean over human tumour cell lines, 48 h exposure; for Log10 TGI mean graph midpoint (MG_MID): total cell growth inhibition (0% growth). The protocol:
(§1) Biological Activity: In vitro biological activity studies were carried out at National Cancer Institute (USA).
(§2) Cytotoxicity: Compounds VIa and VIb were evaluated in vitro against sixty human tumour cells derived from nine cancer types (leukemia, non-small-cell lung, colon, CNS, melanoma, ovarian, prostate, and breast cancer). For each compound, dose response curves for each cell line were measured at a minimum of five concentrations at 10 fold dilutions. A protocol of 48 h continuous drug exposure was used and a sulforhodamine B (SRB) protein assay was used to estimate cell viability or growth. The concentration causing 50% cell growth inhibition (GI50), total cell growth inhibition (TGI 0% growth) and 50% cell death (LC50, −50% growth) compared with the control was calculated.
A general note: The SRB assay estimates cell density from bound dye.

Data set [2] deals with Renal cancer cell lines. Description: NCI in vitro cytotoxicity screen (SRB), renal panel. The note with it: average of six to eight different cancer cell lines. The format is cell-based, human. As for the experimental part: as §1, §2
(§3) Each cancer type represents the average of six to eight different cancer cell lines.

Data set [3] relates to Ovarian cancer cell lines. Description: NCI in vitro cytotoxicity screen (SRB), ovarian panel. Conditions: average of six to eight different cancer cell lines. The format is cell-based, human. The protocol: as §1, §2, §3
In data set [4] the test system is Breast cancer cell lines. Description: NCI in vitro cytotoxicity screen (SRB), breast panel. The format is cell-based, human. The note with it: average of six to eight different cancer cell lines. The protocol: as §1, §2, §3
Data set [5] deals with Prostate cancer cell lines. Description: NCI in vitro cytotoxicity screen (SRB), prostate panel. The data set is classed as cell-based, human. Conditions: average of six to eight different cancer cell lines. As for the experimental part: as §1, §2, §3
In data set [6] the test system is CNS cancer cell lines. Description: NCI in vitro cytotoxicity screen (SRB), CNS panel. The format is cell-based, human. The note with it: average of six to eight different cancer cell lines. As for the experimental part: as §1, §2, §3
Data set [7] concerns Melanoma cell lines. Description: NCI in vitro cytotoxicity screen (SRB), melanoma panel. The data set is classed as cell-based, human. The note with it: average of six to eight different cancer cell lines. The protocol: as §1, §2, §3
Data set [8] concerns Colon cancer cell lines. Description: NCI in vitro cytotoxicity screen (SRB), colon panel. The format is cell-based, human. The note with it: average of six to eight different cancer cell lines. The protocol:
as §1, §2, §3

Data set [9] deals with Leukaemia cell lines. Description: NCI in vitro cytotoxicity screen (SRB), leukaemia panel. Conditions: average of six to eight different cancer cell lines. The data set is classed as cell-based, human. As for the experimental part: as §1, §2, §3
The subject of data set [10] is non-small-cell lung cancer cell lines. Description: NCI in vitro cytotoxicity screen (SRB), non-small-cell lung panel. The note with it: average of six to eight different cancer cell lines. The format is cell-based, human. The protocol: as §1, §2, §3

The results in this text go back to patent publication US6683073B1, “Pyrimidine linked pyrrolo[2,1-c][1,4]benzodiazepines as potential antitumour agents” (Council of Scientific and Industrial Research, priority 2003, dated 2004).

Each structure is given as a SMILES string.

For the molecule `COc1cc2c(cc1OCCCCOc1cc(-c3ccc(F)cc3)nc(C)n1)N=C[C@@H]1CCCN1C2=O` [VIb, 7-methoxy-8-[6′-(4″-fluorophenyl)-2′-methylpyrimidine-4′-yloxy]butoxy-(11aS)-1,2,3,11a-tetrahydro-5H-pyrrolo[2,1,c][1,4]benzodiazepin-5-one], in data set [1], the “Log10 GI50 mean graph midpoint (MG_MID)” value is −6.41. In data set [1] (human tumour cell lines), the “cytotoxic / anticancer activity, in words” value was “slightly higher activity”. Also, the “Log10 TGI mean graph midpoint (MG_MID)” value in data set [1] is −5.57. The “in vitro cytotoxicity, log10 value (quantity not given)” value in [2] is listed as −4.39; in data set [3] it was −4.33; in [4], −4.52; in data set [5] it was −4.45; in [6] it was −4.40; in data set [7], −5.22. Moreover, the “in vitro cytotoxicity, log10 value (quantity not given)” value in [8] is listed as −4.67; in [9], −5.41; in [10] it was −4.61.

As to `COc1cc2c(cc1OCCCOc1cc(-c3ccc(F)cc3)nc(C)n1)N=C[C@@H]1CCCN1C2=O` [VIa, 7-methoxy-8-[6′-(4″-fluorophenyl)-2′-methylpyrimidine-4′-yloxy]propoxy-(11aS)-1,2,3,11a-tetrahydro-5H-pyrrolo[2,1,c][1,4]benzodiazepin-5-one], in data set [1], the “Log10 GI50 mean graph midpoint (MG_MID)” value is −4.73. Further, in data set [1], the “Log10 TGI mean graph midpoint (MG_MID)” value is −4.34. Also, the “in vitro cytotoxicity, log10 value (quantity not given)” value in data set [2] is −4.18; in [3], −4.05; in data set [4], −4.09; in data set [5], −4.00; in [6], −4.10; in data set [7], −4.14. Further, the “in vitro cytotoxicity, log10 value (quantity not given)” value in [8] is given as −4.12; in data set [9], −4.03; in data set [10], −4.07.
